Reference: patent EP4679096A1, “BIOMARKERS AND METHOD FOR ESTIMATING BRAIN NEURODEGENERATIVE CONDITION” (SHIMADZU CORPORATION, priority 2023, dated 2024)
Peptide text beside a SMILES is read from it.

Assay: Effect of plasma handling (thawed, about 2 hours at room temperature, re-frozen: RT2h-FT1) on NI of Ng peptides
Format: in vitro ADME, human
Conditions: FIG. 1
Experimental: Among the 161 samples, samples obtained by thawing cryopreserved samples, placing the samples at room temperature for about 2 hours, and then re-freezing the samples are also included. In order to investigate the influence of this process on the measured value of the Ng peptide, the Ng peptide to be analyzed was evaluated using a part of the sample. In the measurement of the sample that was thawed, left at room temperature for about 2 hours, and then re-frozen (sample under the RT2h-FT1 condition), the above [purification] [mass spectrometry] was performed except that SIL-Ng50-78 was used as the internal standard peptide, and the internal standard peptide was diluted with the first buffer. The above [purification] [mass spectrometry] was also performed on the samples not subjected to the RT2h-FT1 process (samples under control conditions). For these, data processing was performed using data obtained by simultaneously measuring SIL-Ng50-78 and SIL-Ng45-75 and SIL-Ng24-75 such that the measured value of the RT2h-FT1 condition normalized with SIL-Ng50-78 was NI normalized with SIL-Ng45-75 and SIL-Ng24-75.
From this, it can be seen that the decomposition of the Ng peptide proceeds by the time for which the plasma is stored in a thawed state and/or freeze-thawing. […]

CC[C@H](C)[C@H](NC(=O)[C@@H](N)CCCCN)C(=O)N[C@@H](CCCCN)C(=O)N[C@@H](CO)C(=O)NCC(=O)N[C@@H](CCC(=O)O)C(=O)N[C@@H](CCCNC(=N)N)C(=O)NCC(=O)N[C@@H](CCCNC(=N)N)C(=O)N[C@@H](CCCCN)C(=O)NCC(=O)N1CCC[C@H]1C(=O)NCC(=O)N1CCC[C@H]1C(=O)NCC(=O)NCC(=O)N1CCC[C@H]1C(=O)NCC(=O)NCC(=O)N[C@@H](C)C(=O)NCC(=O)N[C@H](C(=O)N[C@@H](C)C(=O)N[C@@H](CCCNC(=N)N)C(=O)NCC(=O)NCC(=O)N[C@@H](C)C(=O)NCC(=O)NCC(=O)NCC(=O)N1CCC[C@H]1C(=O)O)C(C)C [Ng45-75] (H-KIKSGERGRKGPGPGGPGGAGVARGGAGGGP-OH)
change of NI under the RT2h-FT1 condition compared with the Control condition (decomposition in plasma): smaller decrease width due to decomposition than the other Ng peptides

CC(C)[C@H](NC(=O)CNC(=O)[C@H](C)NC(=O)CNC(=O)CNC(=O)[C@@H]1CCCN1C(=O)CNC(=O)CNC(=O)[C@@H]1CCCN1C(=O)CNC(=O)[C@@H]1CCCN1C(=O)CNC(=O)[C@H](CCCCN)NC(=O)[C@H](CCCNC(=N)N)NC(=O)CNC(=O)[C@H](CCCNC(=N)N)NC(=O)[C@@H](N)CCC(=O)O)C(=O)N[C@@H](C)C(=O)N[C@@H](CCCNC(=N)N)C(=O)NCC(=O)NCC(=O)N[C@@H](C)C(=O)NCC(=O)NCC(=O)NCC(=O)N1CCC[C@H]1C(=O)O [Ng50-75] (H-ERGRKGPGPGGPGGAGVARGGAGGGP-OH)
change of NI under the RT2h-FT1 condition compared with the Control condition (decomposition in plasma): smaller decrease width due to decomposition than the other Ng peptides
